Series [1] concerns lithium chloride-pilocarpine epilepsy model rat. The series can be described thus: Lithium chloride-pilocarpine rat epilepsy model, prophylactic administration. The series is classed as in vivo, SD rats. The settings on record: 10 rats; for mortality rate: within 1 to 7 days after modeling. The text has this: Stages: epileptic seizures evaluation are categorized by Racine Stages
Stage 0: no signs of any seizure;
Stage I: staring, head and face slightly trembling;
Stage II: head nodding or wet dog-like shaking;
Stage III: forelimb limit convulsions;
Stage IV: full-body ankylosing convulsions with a standing hind limb;
Stage V: full-body ankylosing clonic seizures with standing with fell;
Partial epilepsy seizure occurs when any one of Stage Ito Stage III appears;
Generalized epilepsy seizure occurs when Stage IV or Stage V appears;
Status epilepticus (SE) occurs when Stage IV or Stage V lasts 30 minutes.
The rat epilepsy models were treated with lithium chloride-pilocarpine and used levetiracetam as positive control. The duration of acute seizures of lithium chloride-pilocarpine epilepsy model rat was selected as the observation time, and prophylactic administration was used.
Animals were randomly divided into 4 groups, 10/group. Levetiracetam was selected as a positive control, 1.5 times of clinical dose were chosen, that is, 150 mg/kg. The clinical dose of an adult is 800 mg/times, twice daily, that is, 1600 mg/60 kg, 26.7 mg/kg. The dose of a rat is converted to 160 mg/kg according to body surface area. R-oxiracetam and levorotatory oxiracetam were selected half of the dose, that is, 80 mg/kg, and 1.5 times is 120 mg/kg. The dose was 1 ml/100 g, and the rats were treated with continuous administration for 7 days. As levetiracetam administration of 1.3 h (80 min), the plasma concentration peak, so we choose the last 80 minutes after the last administration of modeling. As administration of levetiracetam for 1.3 h (80 min), the plasma concentration peak was reached, so each group was selected after the last 80 minutes after the start of modeling.
Modeling method: After several previous test, the following modeling method was chosen: Animal ip. Lithium chloride 3 mmol/kg (1.5 ml/L) 127 mg/kg (12.7 mg/ml, 1 ml/100 g body weight), 24 h, 37.5 mg/kg pilocarpine three times ip. mg/kg (2.5 mg/ml, 0.5 ml/100 g body weight) at intervals of 10 minutes. […]

The conditions of series [2]: cited from earlier work.
A short description of series [3]: Pharmacokinetics and bioavailability in dogs, plasma determined by LC-MS. The series is classed as in vivo, dog. As to the method:
A. The Pharmacokinetics of R-Oxiracetam In Vivo and Studies of Bioavailability
4 Determination Methods of Oxiracetam and R-Oxiracetam in Plasma by LC-MS
4.1 Chromatographic Conditions
Mobile phase: methanol: water (5:95)
Column: ZORBAX SB-Aq (2.1×100 mm 3.5μ)
Column temperature: 30° C.;
Injection volume: […] 4.2 Mass Spectrometry Detection Parameters
Mass spectrometry ionization method: electrospray ionization (ESI); ion polarity Positive; scanning mode for multiple reactions monitoring (MRM); scanning time of 100 ms. The ionic reactions used for quantitative analysis were m/z (oxiracetam) m/z 159.0→m/z 113.9 and m/z 143.1→m/z 126.0 (piracetam), respectively.
20 μL of the drug-containing the plasma sample is taken in a 1.5 mL Eppendorf tube. 20 μL of piracetam (20 μg/mL) of the internal standard solution is added, and mixed by the vortex mixer for 30s. Then, 500 μL of acetonitrile is added thereto, vortex shaken for 5 min and centrifugated at 16000 rpm for 10 min. The supernatant from the centrifugation was passed through 1 ml of SPE C 18E column and the filtrate was collected, put into 38° C. constant temperature water bath and dried by nitrogen gas. 300 μL of mobile phase was dissolved and the injection volume was 10 μL.
20 μL of blank dog plasma was added into the working solution prepared from the oxiracetam standard. The concentrations of oxiracetam in the plasma were 0.167, 0.33, 0.37, 1.33, 2.67, 4.0, 6.67, 13.33 and 26.67 μg/mL, respectively. A sample was made for each concentration respectively according to the procedures“4.4 Extraction of plasma samples”. The ratio of the peak area (As) of oxiracetam to the peak area (Ai) of the internal standard piracetam (f=As/Ai) were calculated, and perform linear regression using the concentration (C) to the ratio (f). The weight parameter 1/x, and the oxiracetam regression equation: y=5.2117X−0.76985 (r=0.9970, weight 1/x).
20 μL of blank dog plasma was added into the working solution prepared from the R-oxiracetam standard. The concentrations of R-oxiracetam in the plasma were 0.167, 0.33, 0.37, 1.33, 2.67, 4.0, 6.67, 13.33 and 26.67 μg/mL, respectively. A sample was made for each concentration respectively according to the procedures “4.4 Extraction of plasma samples”. The ratio of the peak area (As) of R-oxiracetam to the peak area (Ai) of the internal standard piracetam (f=As/Ai) were calculated, and perform linear regression using the concentration (C) to the ratio (f). The weight parameter 1/x, and the oxiracetam regression equation: y=1.6811X−0.031244(r=0.9949, weight 1/x).

Series [4] relates to Pentetrazol (PTZ) ignited rat epilepsy model. The series can be described thus: Pentetrazol (PTZ)-ignited rat epilepsy model. The series is classed as in vivo, SD rats. The settings on record: for Seizure latency (X ± SD) / occurrence rates of stage IV or above seizures: 500 mg/kg daily. As to the method:
Rats were injected intraperitoneally with PTZ at a dose of 35 mg/kg (7 mg/ml, 0.5 ml/100 g body weight) for sub-convulsions three times weekly. The animals are weighed before each ip, and observed for behavioral changes after ip. within 1-2 h. Behavioral scoring was carried out according to the revised Racine score. Three consecutive occurrences of seizures of stage IV and above indicate successful ignition.
The animals successfully ignited were chosen to be grouped. The animals were randomly divided into 4 groups, 8-10/group. […] 3 times of clinical dose were chosen, that is, 500 mg/kg. […] The dosage is 1 ml/100 g, continuous intragastrical administration of 10 days. Specific dose settings are as follows:
PTZ 35 mg/kg. The animals are observed for behavioral changes within 2 h. Behavioral scoring was carried out according to the revised Racine score, continuous administration for 10 days, grading standards as mentioned above.
The seizures were recorded daily ip PTZ within 2 h. The seizure levels, latencies, mortality were recorded, and compared with the model control group.

[5] abbreviates: 150 mg/kg for 7 days before modeling.
Where [6] appears, read: 120 mg/kg for 7 days before modeling.

Where “and” joins values, the source holds several entries; their conditions need not be identical. Equal values may be shown once. Marks after values point to notes of the source that are not given here.

`CC[C@@H](C(N)=O)N1CCCC1=O` [Levetiracetam]: in series [1] (setting [5]), the “Latency Stage I” value is 17.6 ± 4.1 min, the “Latency Stage II” value is listed as 22.6 ± 5.8 min, the “Latency Stage III” value is reported as 34.6 ± 9.4 min and the “Latency Stage IV” value was found to be 33.6 ± 8.3 min. Also, in series [1] (setting [5]), the “Latency Stage V” value is 74.3 ± 24.3 min, the “Number of Deaths” value stood at 5, the “Number of SE Animals” value was 7 and the “Number of seizures Stage I” value was determined as 1.8 ± 0.8 times. In series [1] (setting [5]), the “Number of seizures Stage II” value is reported as 4.4 ± 3.7 times, the “Number of seizures Stage III” value came out at 3.6 ± 2.3 times, the “Occurrence rate Stage I” value is recorded as 10% and the “Occurrence rate Stage II” value amounted to 9%. In series [1] (setting [5]), the “Occurrence rate Stage III” value is on record as 8%, the “Occurrence rate Stage IV” value was found to be 7%, the “Occurrence rate Stage V” value was 7% and the “duration Stage IV” value is recorded as 23.3 ± 6.6 min. Also, in series [1] (setting [5]), the “duration Stage V” value was 63.3 ± 19.0 min and the mortality rate was found to be 50%. Also, the “time of plasma concentration peak after administration” value in series [2] (in vivo) is 1.3 h.

Consider `NC(=O)CN1C[C@@H](O)CC1=O` [S-oxiracetam], for which, in series [1] (setting [6]), the “Latency Stage I” value came to 16.9 ± 5.4 min, the “Latency Stage II” value is 26.7 ± 6.5 min, the “Latency Stage III” value was determined as 35.4 ± 5.8 min and the “Latency Stage IV” value worked out at 37.8 ± 7.4 min. Also, in series [1] (setting [6]), the “Latency Stage V” value was found to be 64.5 ± 23.2 min, the “Number of Deaths” value is 3, the “Number of SE Animals” value is recorded as 4 and the “Number of seizures Stage I” value is 2.2 ± 1.0 times. In series [1] (setting [6]), the “Number of seizures Stage II” value came to 5.2 ± 3.1 times, the “Number of seizures Stage III” value is 5.6 ± 4.2 times, the “Occurrence rate Stage I” value stood at 10% and the “Occurrence rate Stage II” value is 10%. In addition, in series [1] (setting [6]), the “Occurrence rate Stage III” value was determined as 5%, the “Occurrence rate Stage IV” value came out at 4%, the “Occurrence rate Stage V” value is on record as 4% and the “duration Stage IV” value came out at 27.5 ± 12.1 min. Also, in series [1] (setting [6]), the “duration Stage V” value was 79.8 ± 29.5 min and the mortality rate is on record as 30%.

As for `NC(=O)CN1CC(O)CC1=O` (racemic) [oxiracetam], the “Concentration in dog blood C” value in series [3] (Time 0 h, individual dogs, one table per dog) is 0 ng/mL; in series [3] (Time 0.25 h, individual dogs, one table per dog), 5123 ng/mL and -4948 ng/mL and 7540 ng/mL and -4135 ng/mL and 5092 ng/mL; in series [3] (Time 0.5 h, individual dogs, one table per dog), 41650 ng/mL and 36440 ng/mL and 42030 ng/mL and 41740 ng/mL and 42350 ng/mL; in series [3] (Time 1 h, individual dogs, one table per dog) it was 106427.1 ng/mL and 101410.1 ng/mL and 79361 ng/mL and 58870 ng/mL and 139963.8 ng/mL and 290065.6 ng/mL; in series [3] (Time 1.25 h, individual dogs, one table per dog) it was 104196 ng/mL and 77730 ng/mL and 107177.3 ng/mL and 68450 ng/mL and 302273 ng/mL and 142365.9 ng/mL; in series [3] (Time 1.5 h, individual dogs, one table per dog), 122326.7 ng/mL and 104856.7 ng/mL and 96860 ng/mL and 192364.2 ng/mL and 186435.5 ng/mL. Moreover, the “Concentration in dog blood C” value in series [3] (Time 2 h, individual dogs, one table per dog) was 161110.6 ng/mL and 146146.6 ng/mL and 100650 ng/mL and 207535.1 ng/mL and 137414 ng/mL and 228058.3 ng/mL; in series [3] (Time 4 h, individual dogs, one table per dog) it was 52390 ng/mL and 40540 ng/mL and 28940 ng/mL and 42680 ng/mL and 21070 ng/mL and 33010 ng/mL; in series [3] (Time 6 h, individual dogs, one table per dog) it was 8396 ng/mL and 4367 ng/mL and 4934 ng/mL and 7743 ng/mL and 29760 ng/mL and 8301 ng/mL; in series [3] (Time 8 h, individual dogs, one table per dog) it was -3894 ng/mL and -4318 ng/mL and -4781 ng/mL and -745.6 ng/mL and -465.7 ng/mL; in series [3] (Time 12 h, individual dogs, one table per dog), -4730.8 ng/mL and -4338 ng/mL and -8257 ng/mL and -2959 ng/mL and -6329 ng/mL and -958.4 ng/mL; in series [3] (Time 24 h, individual dogs, one table per dog), 0 ng/mL and 21660 ng/mL. Also, the concentration at 0 h in series [3] (dog, plasma, Time 0 h, individual dogs, one table per dog, read-out: Concentration in dog blood C) stood at 0 ng/mL. In addition, the concentration at 0.25 h in series [3] (dog, plasma, Time 0.25 h, individual dogs, one table per dog, read-out: Concentration in dog blood C) was determined as 4890 ng/mL. Besides, the concentration at 0.5 h in series [3] (dog, plasma, Time 0.5 h, individual dogs, one table per dog, read-out: Concentration in dog blood C) came to 28200 ng/mL. In addition, in series [3] (dog, plasma, Time 1.5 h, individual dogs, one table per dog, read-out: Concentration in dog blood C), the concentration at 1.5 h turned out to be 148000 ng/mL. In addition, in series [3] (dog, plasma, Time 8 h, individual dogs, one table per dog, read-out: Concentration in dog blood C), the concentration at 8 h amounted to 3120 ng/mL. For the same compound, in series [3] (dog, plasma, dogs, mean ± SD), the maximum concentration (Cmax) worked out at 202000 ± 79500 ng/mL.

As for `CCCC(CCC)C(=O)[O-].[Na+]` [Sodium valproate, reference compound], the “Seizure latency (X ± SD)” value in series [4] (D1) turned out to be 4.00 ± 1.41 m; in series [4] (D2), 5.67 ± 2.25 m; in series [4] (D3), 5.67 ± 1.37 m; in series [4] (D4), 6.33 ± 1.63 m; in series [4] (D10), 8.33 ± 0.82 m. Moreover, the “occurrence rates of stage IV or above seizures” value in series [4] (D1) is 4/6 (66.7) %; in series [4] (D2), 3/6(50.0) %; in series [4] (D3) it was 3/6 (50.0) %; in series [4] (D4), 2/6 (33.3) %; in series [4] (D5) it was 2/6 (33.3) %; in series [4] (D6), 2/6 (33.3) %. In addition, the “occurrence rates of stage IV or above seizures” value in series [4] (D7) is on record as 1/6* (16.7) %; in series [4] (D8) it was 0/6** (0) %; in series [4] (D9), 1/6 (16.7) %; in series [4] (D10) it was 0/6* (0) %. In series [4] (500 mg/kg intragastric, 10 days), the mortality rate turned out to be 0%. The “Numbers of deaths (Number)” value in series [4] (500 mg/kg intragastric, 10 days, 6 animals) came out at 0. The bioavailability in series [2] (oral administration) was about 100%.

A word on the Cmax: it is the highest concentration seen after dosing. The term bioavailability denotes the share of a dose that reaches the circulation, judged against a reference dose that is usually intravenous.

Source of the values: US20180147183A1, “USE OF R-OXIRACETAM IN PHARMACEUTICAL FIELD” (Chongqing Runze Pharmaceutical Co., Ltd., priority 2015, published 2018).
